Values after ≈ are worked out from the molar mass of the structure shown.
Columns and labels:
Type in all cases: cell-based
E. coli/Tem-1 = assay: MIC susceptibility testing (modified NCCLS); conditions: Table 4, E. coli expressing TEM-1 beta-lactamase
Method: (§1) The NCCLS (National Committee for Clinical Laboratory Standards), method to determine MIC's of antimicrobial compounds is modified for high-throughput screening. All stocks of tested compounds are prepared in either water or in DMSO depending on solubility. At the highest concentration, DMSO content should not exceed 0.5%. Briefly, twenty 2-fold serial dilutions of test compounds from the highest concentration is made in a 384-well microtiter plate. Each well is inoculated with testing bacteria in broth to a final concentration of approximately 1-1.5×10^6 cells/ml. Bacterial growth is determined by the increase of optical density at 600 nm using a microplate reader (Tecan SpectraFluor Plus). The MIC is defined as the lowest concentration at which bacterial growth (equivalent to visible growth) was inhibited after 16 to 18 hours of incubation at the appropriate temperature required for the bacteria growth.
E. coli/TEM—E. coli expressing TEM-1 beta-lactamase; MRSA—Methicillin Resistant S. Aureus; MSSA—Methicillin Sensitive S. Aureus.

Mammalian cells = assay: Toxicity to mammalian cells; conditions: after 16 hours of exposure
Method: Mammalian cells were treated with Compound #2 as described above.

S. aureus = assay: MIC susceptibility testing (modified NCCLS)
Method: as §1, with “Plus).” for “Plus). The MIC is defined as the lowest concentration at which bacterial growth (equivalent to visible growth) was inhibited after 16 to 18 hours of incubation at the appropriate temperature required for the bacteria growth.”

CSCC[C@H](NC=O)C(=O)N[C@@H](CC(C)C)C(=O)Oc1cc(Cl)ccc1Oc1ccc(Cl)cc1Cl [Compound #2]
MIC (E. coli/Tem-1; Exp. #1): 16000 ng/mL (≈ 28500 nM)
MIC (E. coli/Tem-1; Exp. #2): 16000 ng/mL (≈ 28500 nM)
IC50 (Mammalian cells): ~30 µM
MIC (S. aureus; Table 3, S. aureus ATCC 11632, Exp. #1): ≦0.125 μg/ml
MIC (S. aureus; Table 3, S. aureus ATCC 11632, Exp. #2): ≦0.125 μg/ml
MIC (S. aureus; Table 3, S. aureus ATCC 13301, Exp. #1): ≦0.125 μg/ml
MIC (S. aureus; Table 3, S. aureus ATCC 13301, Exp. #2): ≦0.125 μg/ml
MIC (S. aureus; Table 3, S. aureus ATCC 14154, Exp. #1): ≦0.125 μg/ml
MIC (S. aureus; Table 3, S. aureus ATCC 14154, Exp. #2): ≦0.125 μg/ml
MIC (S. aureus; Table 3, S. aureus ATCC 33591, Exp. #1): ≦0.125 μg/ml
MIC (S. aureus; Table 3, S. aureus ATCC 33591, Exp. #2): ≦0.125 μg/ml
MIC (S. aureus; Table 3, S. aureus ATCC 33592, Exp. #1): ≦0.125 μg/ml
MIC (S. aureus; Table 3, S. aureus ATCC 33592, Exp. #2): ≦0.125 μg/ml
MIC (S. aureus; Table 3, S. aureus ATCC 33593, Exp. #1): ≦0.125 μg/ml
MIC (S. aureus; Table 3, S. aureus ATCC 33593, Exp. #2): ≦0.125 μg/ml
MIC (S. aureus; Table 3, S. aureus ATCC 43300, Exp. #1): ≦0.125 μg/ml
MIC (S. aureus; Table 3, S. aureus ATCC 43300, Exp. #2): ≦0.125 μg/ml
MIC (S. aureus; Table 3, S. aureus ATCC 700260, Exp. #1): ≦0.125 μg/ml
MIC (S. aureus; Table 3, S. aureus ATCC 700260, Exp. #2): ≦0.125 μg/ml
MIC (S. aureus; Table 3, S. aureus ATCC 700698, Exp. #1): ≦0.125 μg/ml
MIC (S. aureus; Table 3, S. aureus ATCC 700698, Exp. #2): ≦0.125 μg/ml
MIC (S. aureus; Table 3, S. aureus ATCC 700699, Exp. #1): 16000 ng/mL (≈ 28500 nM)
MIC (S. aureus; Table 3, S. aureus ATCC 700699, Exp. #2): 8000 ng/mL (≈ 14200 nM)
MIC (S. aureus; Table 3, S. aureus ATCC 700787, Exp. #1): ≦0.125 μg/ml
MIC (S. aureus; Table 3, S. aureus ATCC 700787, Exp. #2): ≦0.125 μg/ml
MIC (S. aureus; Table 3, S. aureus ATCC 700788, Exp. #1): ≦0.125 μg/ml
MIC (S. aureus; Table 3, S. aureus ATCC 700788, Exp. #2): ≦0.125 μg/ml
MIC (S. aureus; Table 3, S. aureus ATCC 700789, Exp. #1): ≦0.125 μg/ml
MIC (S. aureus; Table 3, S. aureus ATCC 700789, Exp. #2): ≦0.125 μg/ml
MIC (S. aureus; Table 4, MRSA ATCC 700699, Exp. #1): 32000 ng/mL (≈ 56900 nM)
MIC (S. aureus; Table 4, MRSA ATCC 700699, Exp. #2): 32000 ng/mL (≈ 56900 nM)
MIC (S. aureus; Table 4, MSSA ATCC 11632, Exp. #1): 32000 ng/mL (≈ 56900 nM)
MIC (S. aureus; Table 4, MSSA ATCC 11632, Exp. #2): 16000 ng/mL (≈ 28500 nM)
MIC (S. aureus; Table 4, MSSA ATCC 33594, Exp. #1): ≦0.125 μg/ml
MIC (S. aureus; Table 4, MSSA ATCC 33594, Exp. #2): ≦0.125 μg/ml
MIC (S. aureus; Table 4, MSSA ATCC 700260, Exp. #1): ≦0.125 μg/ml
MIC (S. aureus; Table 4, MSSA ATCC 700260, Exp. #2): 4000 ng/mL (≈ 7120 nM)
MIC (S. aureus; Table 5, MSSA ATCC 11632): 0.977 ng/mL (≈ 1.74 nM)
MIC (S. aureus; Table 5, MSSA ATCC 13301): 0.015 ng/mL (≈ 0.0267 nM)
MIC (S. aureus; Table 5, MSSA ATCC 14154): 0.977 ng/mL (≈ 1.74 nM)
MIC (S. aureus; Table 5, MSSA ATCC 33591): 15.63 ng/mL (≈ 27.8 nM)
MIC (S. aureus; Table 5, MSSA ATCC 33592): 0.488 ng/mL (≈ 0.868 nM)
MIC (S. aureus; Table 5, MSSA ATCC 33593): 0.488 ng/mL (≈ 0.868 nM)
MIC (S. aureus; Table 5, MSSA ATCC 43300): 0.977 ng/mL (≈ 1.74 nM)
MIC (S. aureus; Table 5, MSSA ATCC 700260): 0.031 ng/mL (≈ 0.0552 nM)
MIC (S. aureus; Table 5, MSSA ATCC 700698): 3.906 ng/mL (≈ 6.95 nM)
MIC (S. aureus; Table 5, MSSA ATCC 700699): ≧4 μg/ml
MIC (S. aureus; Table 5, MSSA ATCC 700787): 7.813 ng/mL (≈ 13.9 nM)
MIC (S. aureus; Table 5, MSSA ATCC 700788): 62.5 ng/mL (≈ 111 nM)
MIC (S. aureus; Table 5, MSSA ATCC 700789): 15.63 ng/mL (≈ 27.8 nM)
